Measurements from patent US20120129787A1, “Modified oligopeptides with anticancer properties and methods of obtaining them” (priority 2010, published 2012).

Columns and labels:
[1] = test system: HeLa cells; assay: Effect of MPs on HeLa cells: number of surviving cells versus concentration; format: cell-based
From the text: In establishing the minimum concentration of MPs that will slow the growth of cells, a comparison was made between the number of surviving cells and the concentration of MPs in the solution.

[2] = test system: benzidine skin sarcoma; assay: Anti-cancer activity on benzidine skin sarcoma in Barbados mice; format: in vivo; settings: mice with benzidine sarcoma
Experimental: Study of the Anti-Cancer Activity of Anticanum on Benzidine Sarcoma. Before applying it to the silica gel, 7 ml of a solution of 2% benzidine and 0.9% sodium chloride was added until an opalescent suspension was formed (1 g silica gel for 5 ml NaCl solution). Twenty-five Barbados mice of both sexes with a weight of 18-20 g that were kept on a vivarium diet were administered benzidine and phorbol acetate immobilized on silica gel subcutaneously near the neck every three days. After two weeks, 18 animals had developed tumors of different sizes in the form of a small bump on the neck near the silica gel granulomas. Each group of animals was administered the corresponding compound parenterally at a dose of 100 mcg/kg weight twice a day for two weeks, beginning at 16 days after administration of the carcinogen.

In the case of CC(=O)O[C@@]12CO[C@@H]1C[C@H](O)[C@@]1(C)C(=O)[C@H](O)C3=C(C)[C@@H](OC(=O)[C@H](O)[C@@H](NC(=O)OC(C)(C)C)c4ccccc4)C[C@@](O)([C@@H](OC(=O)c4ccccc4)[C@H]21)C3(C)C [Taxotere], the “Number of live cells after incubation, %” value ([1]; dose 20 mcg/ml) was 93%, the “Number of live cells after incubation, %” value ([1]; dose 40 mcg/ml) was 91% and the “Number of live cells after incubation, %” value ([1]; dose 60 mcg/ml) was 0.12%. The “Number of live cells after incubation, %” value ([1]; dose 100 mcg/ml) was 92%, the “Number of live cells after incubation, %” value ([1]; dose 120 mcg/ml) was 101% and the “Weight of Animal, Before Treatment” value [2] was 27 ± 2 g.
